In ChEMBL document CHEMBL3885881, “DrugMatrix”:

Species: Rattus norvegicus
Test: DrugMatrix - Regimen: Daily Repeat
Assay type: toxicity, organism-based, Sprague-Dawley
Design: regimen Daily Repeat, gender Male, age 6-8 weeks
Conditions: in vivo, po, route oral GAVAGE, […]; for ABSOLUTE BASOPHIL / ABSOLUTE EOSINOPHIL / ABSOLUTE LYMPHOCYTE / ABSOLUTE MONOCYTE / ABSOLUTE SEGMENTED NEUTROPHIL / BASOPHIL / EOSINOPHIL / ERYTHROCYTE COUNT / HEMATOCRIT / HEMOGLOBIN / LEUKOCYTE COUNT / LYMPHOCYTE / MEAN CORPUSCULAR HEMOGLOBIN / MEAN CORPUSCULAR HEMOGLOBIN CONCENTRATION / MEAN CORPUSCULAR VOLUME / MONOCYTE / NEUTROPHIL / NUCLEATED RED BLOOD CELLS / PLATELET COUNT: tissue Blood; for ALANINE AMINOTRANSFERASE / ALBUMIN / ALKALINE PHOSPHATASE / ASPARTATE AMINOTRANSFERASE / BLOOD UREA NITROGEN / CARBON DIOXIDE / CHLORIDE / CHOLESTEROL / CREATINE PHOSPHOKINASE / CREATININE / GLUCOSE / LACTATE DEHYDROGENASE / LIPASE / PHOSPHORUS / POTASSIUM / SODIUM / TOTAL BILIRUBIN / TOTAL PROTEIN / URIC ACID: tissue Plasma
[1] = 0 mg/kg, 72 h, dose level Control, time 3 day
[2] = 0 mg/kg, 120 h, dose level Control, time 5 day
[3] = 1 mg/kg, 72 h, dose level Low, time 3 day

## C[C@H]1O[C@@H](O[C@H]2[C@@H](O)C[C@H](O[C@H]3[C@@H](O)C[C@H](O[C@H]4CC[C@@]5(C)[C@H](CC[C@@H]6[C@@H]5CC[C@]5(C)[C@@H](C7=CC(=O)OC7)CC[C@]65O)C4)O[C@@H]3C)O[C@@H]2C)C[C@H](O)[C@@H]1O [DIGITOXIN]
[1]
  ABSOLUTE BASOPHIL: 0 CELLS/uL
  ABSOLUTE EOSINOPHIL: 13.67 CELLS/uL
  ABSOLUTE LYMPHOCYTE: 10069.5 CELLS/uL
  ABSOLUTE MONOCYTE: 50 CELLS/uL
  ABSOLUTE SEGMENTED NEUTROPHIL: 516.83 CELLS/uL
  BASOPHIL: 0%
  EOSINOPHIL: 0.17%
  ERYTHROCYTE COUNT: 5.44 x10E6/uL
  HEMATOCRIT: 33.88%
  HEMOGLOBIN: 13.23 G/DL
  LEUKOCYTE COUNT: 10.65 x10E3/uL
  LYMPHOCYTE: 94.67%
  MEAN CORPUSCULAR HEMOGLOBIN: 24.37 pg
  MEAN CORPUSCULAR HEMOGLOBIN CONCENTRATION: 39.05 G/DL
  MEAN CORPUSCULAR VOLUME: 62.38 fL
  MONOCYTE: 0.67%
  NEUTROPHIL: 4.5%
  NUCLEATED RED BLOOD CELLS: 0.33 /100WBC
  PLATELET COUNT: 414.5 x10E3/uL
  ALANINE AMINOTRANSFERASE: 72 u/L
  ALBUMIN: 3.75 G/DL
  ALKALINE PHOSPHATASE: 375 u/L
  ASPARTATE AMINOTRANSFERASE: 87.5 u/L
  BLOOD UREA NITROGEN: 14 mg/dL
  CARBON DIOXIDE: 27.5 mmol/L
  CHLORIDE: 95.83 MEQ/L
  CHOLESTEROL: 68.5 mg/dL
  CREATINE PHOSPHOKINASE: 284.33 u/L
  CREATININE: 0.16 mg/dL
  GLUCOSE: 156.67 mg/dL
  LACTATE DEHYDROGENASE: 101.83 u/L
  LIPASE: 9.67 u/L
  PHOSPHORUS: 10.33 mg/dL
  POTASSIUM: 5.22 MEQ/L
  SODIUM: 137.67 MEQ/L
  TOTAL BILIRUBIN: 0.13 mg/dL
  TOTAL PROTEIN: 5.43 G/DL
  URIC ACID: 0.8 mg/dL
[2]
  ABSOLUTE BASOPHIL: 0 CELLS/uL
  ABSOLUTE EOSINOPHIL: 20.67 CELLS/uL
  ABSOLUTE LYMPHOCYTE: 11518.33 CELLS/uL
  ABSOLUTE MONOCYTE: 47 CELLS/uL
  ABSOLUTE SEGMENTED NEUTROPHIL: 614 CELLS/uL
  BASOPHIL: 0%
  EOSINOPHIL: 0.17%
  ERYTHROCYTE COUNT: 5.61 x10E6/uL
  HEMATOCRIT: 34.25%
  HEMOGLOBIN: 13.38 G/DL
  LEUKOCYTE COUNT: 12.2 x10E3/uL
  LYMPHOCYTE: 94.33%
  MEAN CORPUSCULAR HEMOGLOBIN: 23.83 pg
  MEAN CORPUSCULAR HEMOGLOBIN CONCENTRATION: 39.08 G/DL
  MEAN CORPUSCULAR VOLUME: 61.03 fL
  MONOCYTE: 0.33%
  NEUTROPHIL: 5.17%
  NUCLEATED RED BLOOD CELLS: 0 /100WBC
  PLATELET COUNT: 941.83 x10E3/uL
  ALANINE AMINOTRANSFERASE: 68.83 u/L
  ALBUMIN: 4.12 G/DL
  ALKALINE PHOSPHATASE: 492.67 u/L
  ASPARTATE AMINOTRANSFERASE: 83.33 u/L
  BLOOD UREA NITROGEN: 14 mg/dL
  CARBON DIOXIDE: 37 mmol/L
  CHLORIDE: 98.67 MEQ/L
  CHOLESTEROL: 56.5 mg/dL
  CREATINE PHOSPHOKINASE: 167.33 u/L
  CREATININE: 0.17 mg/dL
  GLUCOSE: 157.5 mg/dL
  LACTATE DEHYDROGENASE: 104.83 u/L
  LIPASE: 10 u/L
  PHOSPHORUS: 10.43 mg/dL
  POTASSIUM: 5.46 MEQ/L
  SODIUM: 143.87 MEQ/L
  TOTAL BILIRUBIN: 0.17 mg/dL
  TOTAL PROTEIN: 5.72 G/DL
  URIC ACID: 0.85 mg/dL
[3]
  ABSOLUTE BASOPHIL: 0 CELLS/uL
  ABSOLUTE EOSINOPHIL: 39.67 CELLS/uL
  ABSOLUTE LYMPHOCYTE: 11912.33 CELLS/uL
  ABSOLUTE MONOCYTE: 73.33 CELLS/uL
  ABSOLUTE SEGMENTED NEUTROPHIL: 641.33 CELLS/uL
  BASOPHIL: 0%
  EOSINOPHIL: 0.33%
  ERYTHROCYTE COUNT: 5.7 x10E6/uL
  HEMATOCRIT: 35.6%
  HEMOGLOBIN: 13.77 G/DL
  LEUKOCYTE COUNT: 12.67 x10E3/uL
  LYMPHOCYTE: 93.67%
  MEAN CORPUSCULAR HEMOGLOBIN: 24.13 pg
  MEAN CORPUSCULAR HEMOGLOBIN CONCENTRATION: 38.7 G/DL
  MEAN CORPUSCULAR VOLUME: 62.33 fL
  MONOCYTE: 0.67%
  NEUTROPHIL: 5.33%
  NUCLEATED RED BLOOD CELLS: 0 /100WBC
  PLATELET COUNT: 661.33 x10E3/uL
  ALANINE AMINOTRANSFERASE: 72.67 u/L
  ALBUMIN: 3.77 G/DL
  ALKALINE PHOSPHATASE: 495.33 u/L
  ASPARTATE AMINOTRANSFERASE: 95.67 u/L
  BLOOD UREA NITROGEN: 12 mg/dL
  CARBON DIOXIDE: 25.67 mmol/L
  CHLORIDE: 96.33 MEQ/L
  CHOLESTEROL: 70.67 mg/dL
  CREATINE PHOSPHOKINASE: 398.33 u/L
  CREATININE: 0.17 mg/dL
  GLUCOSE: 146.67 mg/dL
  LACTATE DEHYDROGENASE: 188.67 u/L
  LIPASE: 11 u/L
  PHOSPHORUS: 10.1 mg/dL
  POTASSIUM: 5.78 MEQ/L
  SODIUM: 137.9 MEQ/L
  TOTAL BILIRUBIN: 0.13 mg/dL
  TOTAL PROTEIN: 5.57 G/DL
